Data set [1] is described as follows: Particle size distribution of SHR0302 by laser diffraction (Malvern, Hydro MV). The format is physicochemical. Particulars: SHR0302 used in Example 1; wet dispersion in ethyl acetate; FIG. 1. The source says:
In the pharmaceutical compositions of the present invention, the active ingredient is present as small particles. Particle size of the drug can be assessed using laser diffraction methods. Laser diffraction is recognized by standards and guidance agencies including ISO and ASTM and is widely used to determine particle size distributions. In conducting the assessment, the sample is passed through a laser beam, which results in laser light scattered at a range of angles. Detectors placed at fixed angles measure the intensity of light scattered at that position. A mathematical model is then applied to generate a particle size distribution. The particle size values reported herein are determined by using a liquid or wet dispersion method.
In particle size determinations, the median value is defined as the value where half of the population resides above this point, and half resides below this point. For particle size distributions the median is called the D50. The D50 is the size that splits the distribution with half above and half below this diameter. The distribution width may also be characterized by citing one, two or three values on the x-axis, typically some combination of the D10, D50, and D90. The D50, the median, has been defined above as the diameter where half of the population lies below this value. Similarly, 90 percent of the distribution lies below the D90, and 10 percent of the population lies below the D10.
A pharmaceutical composition comprising 3% SHR0302 suspended in dimethicone was prepared. The primary particle size distribution of the SHR0302 is characterized by a D10 value of less than about 0.25 μm; a D50 value of less than about 0.7 μm; and a D90 value of less than about 5 μm. The pharmaceutical composition was a transparent solution due to the particles being too small to scatter visible light. A Malvern Metasizer Model 3000 using the Hydro MV dispersion unit was used to determine the particle size distribution profile of SHR0302. […]

Another data set deals with JAK1 (Homo sapiens, UniProt P23458). Particulars: cited from earlier work.
The test system of another data set is women with acne. Particulars: orally administered; cited from earlier work.

The values that follow come from patent publication US20220152033A1, “COMPOSITIONS AND METHODS FOR DEEP DERMAL DRUG DELIVERY” (ARCUTIS BIOTHERAPEUTICS, INC., priority 2020, published 2022).

Each structure is given as a SMILES string.

Chain of JAK1 (P23458 whole entry, species assumed): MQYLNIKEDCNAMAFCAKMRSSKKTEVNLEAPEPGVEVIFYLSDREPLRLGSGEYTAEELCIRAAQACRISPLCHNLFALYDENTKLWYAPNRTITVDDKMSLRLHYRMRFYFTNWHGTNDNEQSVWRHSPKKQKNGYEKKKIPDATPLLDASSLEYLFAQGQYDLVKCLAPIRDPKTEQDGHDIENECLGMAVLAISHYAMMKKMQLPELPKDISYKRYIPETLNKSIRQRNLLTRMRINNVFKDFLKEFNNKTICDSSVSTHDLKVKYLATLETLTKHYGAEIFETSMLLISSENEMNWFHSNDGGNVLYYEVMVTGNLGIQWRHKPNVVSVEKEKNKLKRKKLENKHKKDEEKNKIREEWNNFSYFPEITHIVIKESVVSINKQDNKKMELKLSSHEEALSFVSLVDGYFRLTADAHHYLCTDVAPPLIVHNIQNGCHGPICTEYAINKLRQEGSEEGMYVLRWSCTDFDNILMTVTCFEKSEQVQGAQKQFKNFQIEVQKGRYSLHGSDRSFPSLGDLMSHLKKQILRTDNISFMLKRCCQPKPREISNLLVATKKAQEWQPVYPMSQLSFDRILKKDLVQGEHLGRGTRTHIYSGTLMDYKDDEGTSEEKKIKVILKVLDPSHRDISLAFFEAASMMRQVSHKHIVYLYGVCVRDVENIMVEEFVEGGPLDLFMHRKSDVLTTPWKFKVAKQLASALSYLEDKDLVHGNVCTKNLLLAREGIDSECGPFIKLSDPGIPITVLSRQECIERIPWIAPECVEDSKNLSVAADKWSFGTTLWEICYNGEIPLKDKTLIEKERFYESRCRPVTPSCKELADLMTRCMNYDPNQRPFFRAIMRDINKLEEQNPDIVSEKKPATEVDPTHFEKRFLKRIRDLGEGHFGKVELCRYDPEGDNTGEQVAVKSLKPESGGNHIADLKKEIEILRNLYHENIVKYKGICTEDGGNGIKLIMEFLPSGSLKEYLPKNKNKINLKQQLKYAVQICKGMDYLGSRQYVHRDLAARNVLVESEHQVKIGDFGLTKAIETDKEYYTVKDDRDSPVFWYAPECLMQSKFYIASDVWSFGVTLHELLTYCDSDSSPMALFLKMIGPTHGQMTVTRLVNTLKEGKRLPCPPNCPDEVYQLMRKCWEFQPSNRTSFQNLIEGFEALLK

With `COc1nsc(NC(=O)N2C[C@H]3C[C@H](N(C)c4ncnc5[nH]ccc45)C[C@H]3C2)n1` [SHR0302, (3aR,5S,6aS)—N-(3-methoxyl-1,2,4-thiadiazol-5-yl)-5-(methyl(7H-pyrrolo[2,3-d]pyrimidin-4-yl)amino)hexahydrocyclopenta[c]pyrrole-2(1H)-carboxamide], in data set [1], the “primary particle size distribution D10 value” was “less than 0.25 μm”, the “primary particle size distribution D50 value” is given as “less than 0.7 μm” and the “primary particle size distribution D90 value” was “less than 5 μm”. Moreover, the “selectivity for JAK1 over JAK2” value on JAK1 is recorded as “high selectively for JAK1 over JAK2”.
In the case of `CC(=O)S[C@@H]1CC2=CC(=O)CC[C@]2(C)[C@H]2CC[C@@]3(C)[C@@H](CC[C@@]34CCC(=O)O4)[C@H]12` [spironolactone, 17-hydroxy-7α-mercapto-3-oxo-17α-pregn-4-ene-21-carboxylic acid γ-lactone acetate], the “efficacy in the treatment of women with acne” value in the data set with women with acne is on record as “efficacious”.
